These results are taken from publication PMC6395927, “Rufomycin Targets ClpC1 Proteolysis in Mycobacterium tuberculosis and M. abscessus” (Antimicrobial Agents and Chemotherapy, 2019).

“And” between values parts separate entries of the source, which are not always exact repeats. Identical values can stand only once.

Format in all cases: cell-based, Mycobacterium tuberculosis
In test [1] the test system is rRUFI M. tuberculosis strains (clpC1 mutants).
Test [2] relates to rECU M. tuberculosis strains (clpC1 mutants).
Test [3] deals with M. tuberculosis clinical isolates (pan-susceptible, MDR, XDR).

With `NNC(=O)c1ccncc1` [INH, isoniazid], the MIC in test [1] was 0.22 µM and 0.23 µM and 0.12 µM and 0.24 µM.

For `CC(=O)NC[C@H]1CN(c2ccc(N3CCOCC3)c(F)c2)C(=O)O1` [LZD, linezolid], the MIC in test [2] was 2.5 µM and 1.9 µM and 1.6 µM. Regarding `O=[N+]([O-])c1cn2c(n1)OC[C@@H](OCc1ccc(OC(F)(F)F)cc1)C2` [PA824, pretomanid], the MIC in test [1] was <0.031 µM and 0.041 µM and 0.046 µM; in test [2] it was below 0.031 µM.

Turning to `C/C=C/C[C@@H]1NC(=O)[C@H](CC(C)C)N2C(=O)C(C[C@H](C)[C@H]2O)N(C)C(=O)[C@H](C)NC(=O)[C@H](Cc2ccc(O)c([N+](=O)[O-])c2)NC(=O)[C@H](CC(C)C)N(C)C(=O)[C@H](Cc2cn(C(C)(C)C3CO3)c3ccccc23)NC1=O` (some centres unmarked) [RUFI, rufomycin I], the MIC in test [2] was <0.01 µM and 0.017 µM. For the same molecule, the “activity against monoresistant, MDR, and XDR strains” value in test [3] was “maintains activity”. As to `[H]/N=C(/N)N[C@H]1[C@H](O)[C@@H](O)[C@H](O[C@@H]2O[C@@H](C)[C@](O)(C=O)[C@H]2O[C@@H]2O[C@@H](CO)[C@H](O)[C@@H](O)[C@@H]2NC)[C@@H](N/C(N)=N\[H])[C@@H]1O` [STR, streptomycin], the MIC in test [2] was 0.15 µM and 0.16 µM.

With capreomycin, the MIC in test [2] was 0.42 µM and 0.49 µM.

One may read the MIC as the smallest concentration in the dilution series that meets the test's criterion for growth inhibition.
